Assay results published in ChEMBL document CHEMBL3045733, “3D-QSAR and molecular docking studies of hydroxamic acids as peptide deformylase inhibitors” (Med Chem Res, 2012).

experiment: Inhibition of peptide deformylase using N-formylmethionine-alanine-serineas substrate incubated for 10 min before substrate addition by PDF-FDH coupled assay

pIC50 | SMILES
7.89 | CCCCCNC(=O)[C@@H]1CCCN1C(=O)[C@H](CCCC)[C@H](F)C(=O)NO
7.89 | CCCC[C@@H](C(=O)N1CCC[C@H]1C(=O)N1CCCCC1)[C@H](O)C(=O)NO
7.77 | O=C(CN(CCC1CCCC1)C(=O)N1CCC[C@H]1C(=O)Nc1cccc(O)c1)NO
7.3 | CCCC[C@@H](C(=O)N1CCC[C@H]1C(=O)OC(C)(C)C)[C@@H](OC)C(=O)NO
7.17 | O=C(CN(CCC1CCCC1)C(=O)N1CCC[C@H]1C(=O)Nc1nccc(-c2ccccc2)n1)NO
8.22 | CCCC[C@@H](C(=O)N1CCC[C@H]1C(=O)OC(C)(C)C)[C@@H](O)C(=O)NO
8.17 | CCCC[C@@H](C(=O)N1CC[C@H]1C(=O)NCCC)[C@H](O)C(=O)NO
8.52 | CCCC[C@@H](C(=O)N1CCC[C@H]1C(=O)N1CCN(c2ncccn2)CC1)[C@H](O)C(=O)NO
7.2 | Cc1cnc(NC(=O)[C@@H]2CCCN2C(=O)N(CCC(C)C)CC(=O)NO)s1
8.7 | CCCC[C@@H](C(=O)N1CCC[C@H]1C(=O)Nc1nc(C)c(C)s1)[C@@H](F)C(=O)NO
8.04 | CCCC[C@H](CC(=O)NO)C(=O)N1CCC[C@H]1C(=O)Nc1nc(-c2ccccc2)cs1
8.7 | CCCC[C@@H](C(=O)N1CCC[C@H]1C(=O)Nc1nc(C)c(C)s1)[C@H](F)C(=O)NO
7.77 | CCCC[C@@H](C(=O)N1CCC[C@H]1C(=O)N1CCC1)[C@H](O)C(=O)NO
7.54 | CCCC[C@@H](C(=O)N1CCC[C@H]1C(=O)N1CCC1)[C@H](F)C(=O)NO
7.8 | CCCCNC(=O)[C@@H]1CCCN1C(=O)[C@H](CCCC)[C@H](F)C(=O)NO
7.66 | CCCC[C@@H](C(=O)N1CCC[C@H]1C(=O)N1CCCCC1)[C@H](F)C(=O)NO
8.22 | CCCC[C@@H](C(=O)N1CCC[C@H]1C(=O)N1CCN(c2ncccn2)CC1)[C@H](F)C(=O)NO
8.3 | CCCC[C@@H](C(=O)N1CCC[C@H]1C(=O)N1CCN(c2ccccc2F)CC1)[C@H](O)C(=O)NO
7.62 | CCCC[C@@H](C(=O)N1CCC[C@H]1C(=O)N1CCCC1)[C@H](O)C(=O)NO
7.89 | CCCC[C@@H](C(=O)N1CCC[C@H]1C(=O)NCCC)[C@H](F)C(=O)NO
8.1 | O=C(CN(CCC1CCCC1)C(=O)N1CCC[C@H]1C(=O)Nc1ccc2c(c1)OCO2)NO
7.74 | CCc1nnc(NC(=O)[C@@H]2CCCN2C(=O)N(CCC(C)C)CC(=O)NO)s1
8.15 | CCCC[C@@H](C(=O)N1CCC[C@H]1C(=O)NC(C)C)[C@H](O)C(=O)NO
8.1 | CCCC[C@@H](C(=O)N1CCC[C@H]1C(=O)NCCC)[C@H](O)C(=O)NO
7.92 | Cc1nnc(NC(=O)[C@@H]2CCCN2C(=O)N(CCC(C)C)CC(=O)NO)s1

pIC50 | SMILES
8.04 | CCCC[C@@H](C(=O)N1CCC[C@H]1C(=O)NC1CCCCC1)[C@H](F)C(=O)NO
7.89 | CCCC[C@@H](C(=O)N1CCC[C@H]1C(=O)N1CCOCC1)[C@H](F)C(=O)NO
8.52 | CCCC[C@H](CC(=O)NO)C(=O)N1CCC[C@H]1C(=O)Nc1nc2ccccc2s1
8.52 | Cc1nc(NC(=O)[C@@H]2CCCN2C(=O)N(CCC(C)C)CC(=O)NO)sc1C
7.21 | CNC(=O)[C@@H]1CCCN1C(=O)N(CCC(C)C)CC(=O)NO
7.52 | CCCC[C@@H](C(=O)N1CCC[C@H]1C(=O)OC(C)(C)C)[C@H](OS(=O)(=O)O)C(=O)NO
7.68 | O=C(CN(CCC1CCCC1)C(=O)N1CCC[C@H]1C(=O)Nc1ncccn1)NO
7.01 | CC(C)CCN(CC(=O)NO)C(=O)N1CCC[C@H]1C(=O)Nc1nnc(-c2ccccc2)s1
9 | CCCC[C@@H](C(=O)N1CCC[C@H]1C(=O)Nc1ccc(Cl)c(Cl)c1)[C@H](F)C(=O)NO
8.15 | CCCC[C@@H](C(=O)N1CCC[C@H]1C(=O)NCC(O)CC)[C@H](F)C(=O)NO (some centres undefined)
7.27 | O=C(CN(CCC1CCCC1)C(=O)N1CCC[C@H]1C(=O)Nc1cnccn1)NO
8.1 | CCCC[C@@H](C(=O)N1CCC[C@H]1C(=O)NC(C)(C)CC)[C@H](O)C(=O)NO
7.92 | CC(C)CCNC(=O)[C@@H]1CCCN1C(=O)N(CCC(C)C)CC(=O)NO
6.49 | CC(C)CCN(CC(=O)NO)C(=O)N1CCC[C@H]1C(=O)Nc1nccs1
8 | CCCC[C@H](CC(=O)NO)C(=O)N1CCC[C@H]1C(=O)NC
8.17 | CCCC[C@@H](C(=O)N1CCCC[C@H]1C(=O)NCCC)[C@H](O)C(=O)NO
7.57 | CCCC[C@@H](C(=O)N1CCC[C@H]1C(=O)NC)[C@@H](F)C(=O)NO
8 | CCCC[C@@H](C(=O)N1CCC[C@H]1C(=O)NC)[C@H](O)C(=O)NO
7.8 | C=CCNC(=O)[C@@H]1CCCN1C(=O)[C@H](CCCC)[C@@H](F)C(=O)NO
8.1 | CCCCCNC(=O)[C@@H]1CCCN1C(=O)[C@H](CCCC)[C@H](O)C(=O)NO
8.7 | Cc1nc(NC(=O)[C@@H]2CCCN2C(=O)N(CCC2CCCC2)CC(=O)NO)sc1C
8.22 | CCCC[C@@H](C(=O)N1CCC[C@H]1C(=O)N1CCN(c2ccccc2F)CC1)[C@H](F)C(=O)NO
8.52 | CCCC[C@@H](C(=O)N1CCC[C@H]1C(=O)NC1CCCCC1)[C@H](O)C(=O)NO
7.96 | CC(C)CCN(CC(=O)NO)C(=O)N1CCC[C@H]1C(=O)Nc1ccc2c(c1)OCO2
